The data set is described as follows: Hydrophobicity studies (logP determination), octanol/water, ICP-MS. The note with it: octanol/water (0.2 M KI). The format is physicochemical. As for the experimental part:
Complexes 4 and 6 (1 mmol) were ultrasonicated for 15 min in 10 mL of OSW, centrifuged and supernatants were collected. Aliquots (5 mL) of the obtained OSW solutions of complexes 4 and 6 were added to WSO (5 mL) and shaken for 2 h at ambient temperature. After that, the mixtures were centrifuged and aqueous layer was separated carefully. The platinum concentration was determined from OSW aliquots taken before ([Pt]OSWb) and after ([Pt]OSWa) partition by ICP-MS (ICP-MS spectrometer 7700x, Agilent) with the obtained values corrected for the adsorption effects. logP = log([Pt]WSO/[Pt]OSWa) equation was used for the partition coefficients calculation; [Pt]WSO = [Pt]OSWb−[Pt]OSWa. The experiments were conducted in triplicate.

With `Brc1cc[n+]([Pt-2]([I])([I])[n+]2ccc(Br)c3cc[nH]c32)c2[nH]ccc12` [Complex 6, cis-[Pt(4Braza)2I2]], the logP result is “–0.07”.
